The nature of this test: The compound was tested for inhibitory activity against KDO 8-P synthase by using a KDO 8-P synthase enzymatic assay.
One may read the IC50 as the concentration that gives 50% inhibition. Read a high IC50 as weaker potency. Molecule `O=C(O)C1=C[C@H](OCC(O)P(=O)(O)O)[C@H](O)[C@H](O)C1` (stereo partly drawn) showed an IC50 of 3.8 mM.

In turn, `O=C(O)C1=C[C@H](OCCP(=O)(O)O)[C@H](O)[C@H](O)C1` came in with an IC50 above 25 mM.

`O=P(O)(O)OC[C@H]1O[C@H](O)[C@H](O)[C@@H]1O` registered an IC50 of 4.3 mM.
